The values below come from ChEMBL document CHEMBL6177980 (J Med Chem, 2025).

A short description of data set [1]: AUC (0 to t) in fasted Cynomolgus monkey at 2 mg/kg, iv by LC-MS/MS analysis. As to conditions: in vivo. Format: ADME, organism-based, Macaca fascicularis.
Data set [2] is described as follows: Cmax in fasted Cynomolgus monkey at 5 mg/kg, po by LC-MS/MS analysis. Format: ADME, organism-based, Macaca fascicularis. As to conditions: in vivo.
The nature of data set [3]: Cmax in fasted Cynomolgus monkey at 2 mg/kg, iv by LC-MS/MS analysis. Format: ADME, organism-based, Macaca fascicularis. As to conditions: in vivo.
Data set [4] is described as follows: Oral bioavailability in fasted Cynomolgus monkey at 5 mg/kg by LC-MS/MS analysis. As to conditions: in vivo. In kind it is ADME, organism-based, Macaca fascicularis.
Data set [5] in a line: Stability of compound at pH 6.8 assessed as change in purity at 1 mg/ml incubated for 24 hrs by HPLC analysis. Format: physicochemical. As to conditions: buffer, pH 6.8, 24 h.
Data set [6] in a line: Stability in SIF assessed as compound degradation measured for 24 hrs by HPLC analysis. In kind it is physicochemical. To be noted: simulated intestinal fluid (SIF), read-out: Drug degradation.
The nature of data set [7]: Stability of compound at pH 4.0 assessed as change in purity at 1 mg/ml incubated for 24 hrs by HPLC analysis. In kind it is physicochemical. To be noted: buffer, pH 4, 24 h.
A short description of data set [8]: Stability of compound at pH 4.0 assessed as change in purity at 1 mg/ml incubated for 4 hrs by HPLC analysis. In kind it is physicochemical. To be noted: buffer, pH 4, 4 h.
A short description of data set [9]: AUC (0 to t) in fasted Sprague-Dawley rat at 10 mg/kg, po by LC-MS/MS analysis. To be noted: in vivo. Format: ADME, organism-based.
Data set [10] in a line: Stability of compound at pH 6.8 assessed as change in purity at 1 mg/ml incubated for 4 hrs by HPLC analysis. In kind it is physicochemical. As to conditions: buffer, pH 6.8, 4 h.
Data set [11] can be described thus: Stability of compound at pH 6.8 assessed as change in purity at 1 mg/ml incubated for 12 hrs by HPLC analysis. Format: physicochemical. To be noted: buffer, pH 6.8, 12 h.
Data set [12] is described as follows: AUC (0 to t) in fasted Cynomolgus monkey at 5 mg/kg, po by LC-MS/MS analysis. Format: ADME, organism-based, Macaca fascicularis. To be noted: in vivo.
Data set [13] can be described thus: Stability of compound at pH 1.5 assessed as change in purity at 1 mg/ml incubated for 24 hrs by HPLC analysis. To be noted: buffer, pH 1.5, 24 h. In kind it is physicochemical.
Data set [14] in a line: Stability in SGF assessed as compound degradation measured for 24 hrs by HPLC analysis. In kind it is physicochemical. To be noted: simulated gastric fluid (SGF), read-out: Drug degradation.
Data set [15] in a line: Stability of compound at pH 4.0 assessed as change in purity at 1 mg/ml incubated for 12 hrs by HPLC analysis. In kind it is physicochemical. To be noted: buffer, pH 4, 12 h.
A short description of data set [16]: Cmax in fasted Sprague-Dawley rat at 10 mg/kg, po by LC-MS/MS analysis. In kind it is ADME, organism-based. To be noted: in vivo.
A short description of data set [17]: Half life in fasted Cynomolgus monkey at 2 mg/kg, iv by LC-MS/MS analysis. Format: ADME, organism-based, Macaca fascicularis. To be noted: in vivo.
Data set [18] is described as follows: Half life in fasted Cynomolgus monkey at 5 mg/kg, po by LC-MS/MS analysis. As to conditions: in vivo. In kind it is ADME, organism-based, Macaca fascicularis.
The nature of data set [19]: AUC (0 to t) in fasted Sprague-Dawley rat at 5 mg/kg, iv by LC-MS/MS analysis. In kind it is ADME, organism-based. As to conditions: in vivo.
The nature of data set [20]: Stability of compound at pH 1.5 assessed as change in purity at 1 mg/ml incubated for 12 hrs by HPLC analysis. In kind it is physicochemical. As to conditions: buffer, pH 1.5, 12 h.
The nature of data set [21]: Cmax in fasted Sprague-Dawley rat at 5 mg/kg, iv by LC-MS/MS analysis. To be noted: in vivo. In kind it is ADME, organism-based.
Data set [22] is described as follows: Stability of compound at pH 1.5 assessed as change in purity at 1 mg/ml incubated for 4 hrs by HPLC analysis. Format: physicochemical. To be noted: buffer, pH 1.5, 4 h.

Broadly, the AUC(0-t) is the area under the concentration-time curve up to a stated or last time point. A word on the Cmax: it is the highest concentration seen after dosing. A word on the bioavailability: it is dose-corrected exposure relative to a reference, in per cent. For orientation: half-life means how long it takes for the measured level to halve. `O=c1ccn([C@@H]2O[C@](F)(CO)[C@@H](O)[C@H]2O)c(=O)[nH]1`: the AUC(0-t) was 4830 ng·h/mL in [1], 13000 ng·h/mL in data set [9], 11600 ng·h/mL in data set [12] and 7810 ng·h/mL in data set [19]. Moreover, the Cmax in [2] was 2850 ng/mL; in data set [3], 2530 ng/mL; in data set [16], 1740 ng/mL; in data set [21] it was 2900 ng/mL. In data set [4], this compound came in with a bioavailability of 62.9%. Moreover, the Activity is given as -67.1% in [5]; -43.5% in data set [7]; -8.8% in data set [8]; -18.1% in data set [10]; -44.8% in data set [11]; -86.9% in [13]. In addition, the Activity in data set [15] is listed as -24.9%; in [20], -64.4%; in [22], -27.9%. Besides, the degraded at 24 h in data set [6] and in data set [14] was over 80% in each case. Moreover, the half-life in [17] was 4.34 h; in data set [18], 5.13 h.
